Test results: patent publication US8415469B2, “Compounds and methods for kinase modulation, and indications therefor” (Plexxikon Inc., priority 2005, dated 2013)

How the values were obtained:
Type in all cases: biochemical
[1] = target: T1, Erk2 (Homo sapiens, UniProt P28482); assay: AlphaScreen kinase assay, Erk2; conditions: read-out: IC50, activity toward kinase Erk2
T1 construct: P4227.pET15S ERK2/MEK1DD; His6 with thrombin site (N); made in house
Text: AlphaScreen assay was used to screen additional kinases. The assay is similarly dependent on the phosphorylation of a peptide substrate. In this assay, an antibody that recognizes phosphorylated substrate is bound to an acceptor bead. The peptide substrate is attached to biotin, which binds to a donor head that contains streptavidin. Thus phosphorylated substrate is bound by antibody and streptavidin, bringing the donor and acceptor heads into close proximity when kinase is not inhibited. The donor produces singlet oxygen which results in emission from the acceptor when they are in close proximity. Conversely, when kinase is inhibited, the donor and acceptor beads are not associated and the emission from the acceptor is reduced.
AlphaScreen assays were done using compounds dissolved in DMSO to a concentration of 20 mM. The compounds were diluted accordingly to the desired final concentrations in each sample well, using 1:3 serial dilution for a total of 8 concentration points.

[2] = target: IGF1R (Homo sapiens, UniProt P08069); assay: AlphaScreen kinase assay, IGF1R; conditions: read-out: IC50, activity toward kinase IGF1R
[3] = target: T2, MAP2K1 (Homo sapiens, UniProt Q02750); assay: Z'-Lyte FRET kinase assay (Invitrogen), MAP2K1; conditions: read-out: IC50, activity toward kinase MAP2K1
T2 construct: purchased Invitrogen (assay run by Invitrogen)

[4] = target: T3, Btk (Homo sapiens, UniProt Q06187); assay: Z'-Lyte FRET kinase assay (Invitrogen), Btk; conditions: read-out: IC50, activity toward kinase Btk
T3 construct: purchased Invitrogen (assay run by Invitrogen)

[5] = target: Plk1 (Homo sapiens, UniProt P53350); assay: AlphaScreen kinase assay, Plk1; conditions: read-out: IC50, activity toward kinase Plk1
In short: (§1)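 Biotinylated peptide substrate is phosphorylated by kinase; anti-phosphopeptide antibody on acceptor beads and streptavidin donor beads bring emission when substrate is phosphorylated. Inhibition lowers acceptor signal. Compounds from 20 mM DMSO stock tested as 8-point 1:3 serial dilutions.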

[6] = target: T4, Kdr (Homo sapiens, UniProt P35968); assay: Z'-Lyte FRET kinase assay (Invitrogen), Kdr; conditions: read-out: IC50, activity toward kinase Kdr
T4 construct: purchased Invitrogen (assay run by Invitrogen)

[7] = target: T5, Jnk3 (Homo sapiens, UniProt P53779); assay: AlphaScreen kinase assay, Jnk3; conditions: read-out: IC50, activity toward kinase Jnk3
T5 construct: purchased Upstate Biotechnology

[8] = target: T6, Stk6 (Homo sapiens, UniProt O14965); assay: Z'-Lyte FRET kinase assay (Invitrogen), Stk6; conditions: read-out: IC50, activity toward kinase Stk6
T6 construct: purchased Invitrogen (Carlsbad, Calif.), screening service
T6 sequence (O14965 1-403): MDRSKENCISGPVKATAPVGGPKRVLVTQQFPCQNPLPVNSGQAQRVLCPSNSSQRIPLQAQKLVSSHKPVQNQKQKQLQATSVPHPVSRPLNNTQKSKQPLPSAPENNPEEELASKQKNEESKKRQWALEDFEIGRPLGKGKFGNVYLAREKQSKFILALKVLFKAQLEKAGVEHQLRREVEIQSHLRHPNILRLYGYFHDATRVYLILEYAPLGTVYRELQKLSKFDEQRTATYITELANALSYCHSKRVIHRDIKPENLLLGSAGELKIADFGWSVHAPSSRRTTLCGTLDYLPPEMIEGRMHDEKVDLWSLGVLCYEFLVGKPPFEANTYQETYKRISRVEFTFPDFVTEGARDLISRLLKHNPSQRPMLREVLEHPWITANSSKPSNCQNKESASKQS

[9] = target: T7, PKC theta (Homo sapiens, UniProt Q04759); assay: Z'-Lyte FRET kinase assay (Invitrogen), PKC theta; conditions: read-out: IC50, activity toward kinase PKC theta
T7 construct: purchased Invitrogen (Carlsbad, Calif.), screening service
In short: (§2)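 Inhibition was inferred from protease cleavage of non-phosphorylated peptide, measured as a coumarin/fluorescein ratio. Kinase reactions used 10 μM ATP for 1 h at room temperature.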

[10] = target: T8, Kit (Homo sapiens, UniProt P10721); assay: AlphaScreen kinase assay, Kit; conditions: read-out: IC50, activity toward kinase Kit
T8 construct: P1332.N6 BI PTP KIT M552-K948-X COD; His6 (N); made in house; host or cells: E. coli (PTP1B co-expressed)

[11] = target: T9, Yes (Homo sapiens, UniProt P07947); assay: Z'-Lyte FRET kinase assay (Invitrogen), Yes; conditions: read-out: IC50, activity toward kinase Yes
T9 construct: purchased Invitrogen (Carlsbad, Calif.), screening service
In short: as §2

[12] = target: T10, Itk (Homo sapiens, UniProt Q08881); assay: AlphaScreen kinase assay, Itk; conditions: read-out: IC50, activity toward kinase Itk
T10 sequence (Q08881 1-620): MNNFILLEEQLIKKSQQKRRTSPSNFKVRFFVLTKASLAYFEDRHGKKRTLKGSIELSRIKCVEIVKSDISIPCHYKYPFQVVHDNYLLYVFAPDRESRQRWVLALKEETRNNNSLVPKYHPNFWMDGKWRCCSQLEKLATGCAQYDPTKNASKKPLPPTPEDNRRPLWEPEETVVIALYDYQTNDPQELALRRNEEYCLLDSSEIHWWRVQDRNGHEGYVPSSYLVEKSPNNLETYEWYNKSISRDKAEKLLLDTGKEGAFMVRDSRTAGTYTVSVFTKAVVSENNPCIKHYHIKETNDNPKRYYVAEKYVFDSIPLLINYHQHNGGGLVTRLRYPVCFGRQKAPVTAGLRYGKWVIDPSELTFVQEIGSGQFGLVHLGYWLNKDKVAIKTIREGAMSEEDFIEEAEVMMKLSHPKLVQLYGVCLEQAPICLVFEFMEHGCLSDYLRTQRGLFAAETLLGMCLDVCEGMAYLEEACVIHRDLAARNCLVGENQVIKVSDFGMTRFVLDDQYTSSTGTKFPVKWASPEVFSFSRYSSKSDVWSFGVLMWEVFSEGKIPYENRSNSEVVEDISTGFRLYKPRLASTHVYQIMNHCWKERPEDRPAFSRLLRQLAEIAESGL
In short: as §1

[13] = target: Gsk3β (Homo sapiens, UniProt P49841); assay: AlphaScreen kinase assay, Gsk3β; conditions: read-out: IC50, activity toward kinase Gsk3β
In short: as §1

[14] = target: T11, Flt1 (Homo sapiens, UniProt P17948); assay: AlphaScreen kinase assay, Flt1; conditions: read-out: IC50, activity toward kinase Flt1
T11 construct: P1826.pETN6 BI-PTP FLT1 M799-D1165-X WT; His6 (N); made in house; host or cells: E. coli (PTP1B co-expressed)
T11 sequence (P17948 with tags, fused parts or gaps): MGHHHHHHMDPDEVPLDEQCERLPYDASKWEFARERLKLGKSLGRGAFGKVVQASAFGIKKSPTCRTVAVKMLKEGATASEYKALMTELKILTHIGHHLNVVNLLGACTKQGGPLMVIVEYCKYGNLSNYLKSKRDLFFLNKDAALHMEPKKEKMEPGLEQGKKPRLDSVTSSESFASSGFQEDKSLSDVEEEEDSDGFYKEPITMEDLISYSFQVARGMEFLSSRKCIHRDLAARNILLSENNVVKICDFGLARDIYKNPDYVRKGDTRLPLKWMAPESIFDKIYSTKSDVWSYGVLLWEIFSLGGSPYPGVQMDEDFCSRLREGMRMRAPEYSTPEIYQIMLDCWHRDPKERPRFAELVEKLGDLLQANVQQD

[15] = target: Akt3 (Homo sapiens, UniProt Q9Y243); assay: AlphaScreen kinase assay, Akt3; conditions: read-out: IC50, activity toward kinase Akt3
In short: as §1

Sequence of Plk1 (P53350 whole entry): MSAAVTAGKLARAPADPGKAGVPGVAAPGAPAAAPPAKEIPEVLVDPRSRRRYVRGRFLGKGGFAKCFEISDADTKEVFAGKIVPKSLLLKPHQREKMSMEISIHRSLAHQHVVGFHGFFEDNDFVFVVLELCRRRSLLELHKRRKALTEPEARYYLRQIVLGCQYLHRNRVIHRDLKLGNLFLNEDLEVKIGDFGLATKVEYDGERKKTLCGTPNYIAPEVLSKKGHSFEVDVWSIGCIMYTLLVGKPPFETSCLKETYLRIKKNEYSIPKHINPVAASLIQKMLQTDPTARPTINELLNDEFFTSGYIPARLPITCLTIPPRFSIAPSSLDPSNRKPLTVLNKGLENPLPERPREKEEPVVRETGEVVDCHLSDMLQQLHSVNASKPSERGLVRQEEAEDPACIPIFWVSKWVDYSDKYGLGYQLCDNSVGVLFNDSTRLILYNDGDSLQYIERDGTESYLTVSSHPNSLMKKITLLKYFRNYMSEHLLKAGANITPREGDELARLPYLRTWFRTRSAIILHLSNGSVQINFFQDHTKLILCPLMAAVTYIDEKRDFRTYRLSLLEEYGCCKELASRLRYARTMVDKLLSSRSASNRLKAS
T8 sequence (P10721 with tags, fused parts or gaps): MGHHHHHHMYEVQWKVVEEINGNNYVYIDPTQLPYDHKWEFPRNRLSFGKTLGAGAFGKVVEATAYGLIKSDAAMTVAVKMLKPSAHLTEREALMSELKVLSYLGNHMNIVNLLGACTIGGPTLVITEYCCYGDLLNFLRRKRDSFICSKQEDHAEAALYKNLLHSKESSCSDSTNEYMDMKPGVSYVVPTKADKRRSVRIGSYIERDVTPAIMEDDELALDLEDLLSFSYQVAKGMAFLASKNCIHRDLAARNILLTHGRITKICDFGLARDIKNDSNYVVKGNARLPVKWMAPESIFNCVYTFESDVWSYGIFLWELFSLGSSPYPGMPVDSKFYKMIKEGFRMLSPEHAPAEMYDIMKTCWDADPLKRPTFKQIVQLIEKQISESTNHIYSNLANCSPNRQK
T1 sequence (P28482 with tags, fused parts or gaps): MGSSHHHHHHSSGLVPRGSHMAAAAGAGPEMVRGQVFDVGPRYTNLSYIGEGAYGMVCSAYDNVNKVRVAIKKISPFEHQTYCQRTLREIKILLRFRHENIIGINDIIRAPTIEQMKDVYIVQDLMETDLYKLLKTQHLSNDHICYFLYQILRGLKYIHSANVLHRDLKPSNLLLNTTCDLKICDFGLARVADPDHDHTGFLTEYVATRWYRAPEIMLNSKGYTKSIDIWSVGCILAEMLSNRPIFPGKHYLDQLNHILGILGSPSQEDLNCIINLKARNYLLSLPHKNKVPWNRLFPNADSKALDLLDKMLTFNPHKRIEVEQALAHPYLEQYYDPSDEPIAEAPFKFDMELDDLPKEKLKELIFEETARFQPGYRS
Sequence of IGF1R (P08069 31-1367): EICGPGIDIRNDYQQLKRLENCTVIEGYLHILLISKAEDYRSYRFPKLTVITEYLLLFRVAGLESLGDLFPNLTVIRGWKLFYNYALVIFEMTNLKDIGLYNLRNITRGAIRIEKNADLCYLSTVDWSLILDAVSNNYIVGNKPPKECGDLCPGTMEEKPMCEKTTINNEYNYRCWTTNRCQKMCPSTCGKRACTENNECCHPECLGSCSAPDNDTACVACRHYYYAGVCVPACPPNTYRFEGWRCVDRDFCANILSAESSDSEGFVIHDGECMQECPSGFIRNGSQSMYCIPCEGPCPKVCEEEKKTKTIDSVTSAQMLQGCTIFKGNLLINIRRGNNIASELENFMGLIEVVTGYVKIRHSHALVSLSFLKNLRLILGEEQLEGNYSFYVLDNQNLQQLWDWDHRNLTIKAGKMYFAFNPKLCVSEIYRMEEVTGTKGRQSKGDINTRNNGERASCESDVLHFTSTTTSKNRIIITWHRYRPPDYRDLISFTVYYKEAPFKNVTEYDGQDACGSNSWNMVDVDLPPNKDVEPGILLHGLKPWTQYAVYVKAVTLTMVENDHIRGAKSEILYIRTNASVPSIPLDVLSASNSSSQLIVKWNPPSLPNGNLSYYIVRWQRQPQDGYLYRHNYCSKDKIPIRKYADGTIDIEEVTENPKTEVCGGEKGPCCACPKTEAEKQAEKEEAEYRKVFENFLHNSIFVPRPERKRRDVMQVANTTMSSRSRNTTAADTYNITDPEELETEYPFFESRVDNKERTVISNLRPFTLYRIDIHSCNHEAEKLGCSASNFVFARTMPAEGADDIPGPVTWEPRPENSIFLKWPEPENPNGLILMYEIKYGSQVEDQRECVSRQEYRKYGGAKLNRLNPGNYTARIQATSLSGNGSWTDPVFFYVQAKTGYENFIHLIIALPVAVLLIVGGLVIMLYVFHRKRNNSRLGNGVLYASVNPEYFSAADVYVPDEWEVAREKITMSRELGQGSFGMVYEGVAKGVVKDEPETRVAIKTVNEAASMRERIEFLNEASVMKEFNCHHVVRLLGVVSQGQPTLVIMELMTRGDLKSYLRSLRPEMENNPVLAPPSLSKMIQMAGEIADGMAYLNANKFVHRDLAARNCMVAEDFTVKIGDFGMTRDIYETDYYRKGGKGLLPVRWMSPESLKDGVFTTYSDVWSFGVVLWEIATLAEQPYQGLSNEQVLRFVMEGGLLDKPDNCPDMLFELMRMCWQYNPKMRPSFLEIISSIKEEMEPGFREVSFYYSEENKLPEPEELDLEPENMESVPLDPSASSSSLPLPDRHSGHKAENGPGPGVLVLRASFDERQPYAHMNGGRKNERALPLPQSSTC
T7 sequence (Q04759 whole entry): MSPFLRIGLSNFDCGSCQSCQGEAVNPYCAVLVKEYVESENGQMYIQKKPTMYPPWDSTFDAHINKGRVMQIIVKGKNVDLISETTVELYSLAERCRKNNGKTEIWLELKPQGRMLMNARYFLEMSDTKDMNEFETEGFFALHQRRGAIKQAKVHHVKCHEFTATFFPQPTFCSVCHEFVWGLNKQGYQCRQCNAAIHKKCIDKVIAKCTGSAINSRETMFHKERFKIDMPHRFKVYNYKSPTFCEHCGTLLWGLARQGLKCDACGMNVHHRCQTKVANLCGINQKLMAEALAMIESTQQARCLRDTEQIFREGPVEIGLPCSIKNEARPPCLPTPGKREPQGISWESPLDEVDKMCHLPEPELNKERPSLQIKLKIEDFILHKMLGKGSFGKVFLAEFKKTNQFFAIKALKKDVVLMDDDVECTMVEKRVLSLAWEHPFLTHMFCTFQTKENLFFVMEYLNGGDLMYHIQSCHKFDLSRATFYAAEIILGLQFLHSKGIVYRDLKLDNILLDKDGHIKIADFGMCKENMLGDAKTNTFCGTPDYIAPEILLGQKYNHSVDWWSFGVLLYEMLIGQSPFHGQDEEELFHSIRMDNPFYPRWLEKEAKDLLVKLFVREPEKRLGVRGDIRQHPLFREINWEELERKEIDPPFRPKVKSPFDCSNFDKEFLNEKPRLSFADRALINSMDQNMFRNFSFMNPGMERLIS
Sequence of Akt3 (Q9Y243 whole entry): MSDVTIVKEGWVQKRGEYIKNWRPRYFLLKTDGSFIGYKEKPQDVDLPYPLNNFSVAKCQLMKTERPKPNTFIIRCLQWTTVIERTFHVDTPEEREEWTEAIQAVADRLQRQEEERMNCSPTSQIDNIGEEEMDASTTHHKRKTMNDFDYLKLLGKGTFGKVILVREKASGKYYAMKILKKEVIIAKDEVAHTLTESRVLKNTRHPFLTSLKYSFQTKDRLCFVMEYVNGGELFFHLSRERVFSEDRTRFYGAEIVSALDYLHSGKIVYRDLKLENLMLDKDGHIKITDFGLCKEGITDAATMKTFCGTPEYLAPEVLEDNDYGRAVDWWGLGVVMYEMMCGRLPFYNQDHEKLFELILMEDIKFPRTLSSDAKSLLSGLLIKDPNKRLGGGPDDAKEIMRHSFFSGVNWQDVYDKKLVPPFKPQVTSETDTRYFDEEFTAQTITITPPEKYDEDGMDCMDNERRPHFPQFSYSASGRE
T9 sequence (P07947 whole entry): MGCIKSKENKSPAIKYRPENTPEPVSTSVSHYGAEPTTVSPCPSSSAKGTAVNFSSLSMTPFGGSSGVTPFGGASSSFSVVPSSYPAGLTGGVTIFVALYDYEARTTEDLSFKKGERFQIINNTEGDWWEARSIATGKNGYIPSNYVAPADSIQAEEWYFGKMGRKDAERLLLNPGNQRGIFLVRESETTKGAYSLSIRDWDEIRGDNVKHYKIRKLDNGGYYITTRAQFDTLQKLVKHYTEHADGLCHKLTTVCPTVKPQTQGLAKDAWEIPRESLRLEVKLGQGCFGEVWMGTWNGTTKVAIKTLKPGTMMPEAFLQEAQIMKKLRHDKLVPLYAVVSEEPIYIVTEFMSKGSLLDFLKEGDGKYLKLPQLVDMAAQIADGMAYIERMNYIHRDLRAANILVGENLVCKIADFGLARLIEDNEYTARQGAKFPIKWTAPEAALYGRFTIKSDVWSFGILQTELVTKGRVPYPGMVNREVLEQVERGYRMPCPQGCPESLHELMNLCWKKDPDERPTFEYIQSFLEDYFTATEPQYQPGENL
T2 sequence (Q02750 whole entry): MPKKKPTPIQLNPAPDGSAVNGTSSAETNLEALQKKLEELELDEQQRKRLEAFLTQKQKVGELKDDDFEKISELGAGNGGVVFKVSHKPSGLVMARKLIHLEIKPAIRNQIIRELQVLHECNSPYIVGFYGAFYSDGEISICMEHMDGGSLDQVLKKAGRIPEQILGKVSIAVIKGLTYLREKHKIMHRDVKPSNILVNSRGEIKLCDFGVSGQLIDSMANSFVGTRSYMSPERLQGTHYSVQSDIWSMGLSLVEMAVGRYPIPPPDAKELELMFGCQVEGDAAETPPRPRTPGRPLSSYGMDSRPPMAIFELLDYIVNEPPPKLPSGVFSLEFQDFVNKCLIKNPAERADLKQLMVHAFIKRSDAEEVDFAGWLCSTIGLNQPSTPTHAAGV

Row | IC50 [1] | IC50 [2] | IC50 [3] | IC50 [4] | IC50 [5] | IC50 [6] | IC50 [7] | IC50 [8] | IC50 [9] | IC50 [10] | IC50 [11] | IC50 [12] | IC50 [13] | IC50 [14] | IC50 [15] | Structure (SMILES)
1 | ≤ 10 µM | ≤ 10 µM | ≤ 10 µM | ≤ 10 µM | ≤ 10 µM | ≤ 10 µM | ≤ 10 µM | ≤ 10 µM | ≤ 10 µM | ≤ 10 µM | ≤ 10 µM | ≤ 10 µM |  |  |  | Cc1cc(C)cc(-c2ccnc3[nH]cc(C=O)c23)c1 [Compound P-0031]
2 | ≤ 10 µM | ≤ 10 µM |  |  | ≤ 10 µM |  |  | ≤ 10 µM |  | ≤ 10 µM |  |  | ≤ 10 µM | ≤ 10 µM | ≤ 10 µM | Cc1cccc(-c2ccnc3[nH]cc(CNS(=O)(=O)C(F)(F)F)c23)c1 [Compound P-0154]
